Values quoted from earlier work in US11136326B2, “Pyrrolopyrimidine derivatives as TAM inhibitors” (Incyte Corporation, priority 2015, dated 2021).

Test system: NK cells

## CCOc1cn(-c2ccc(F)cc2C)nc1C(=O)Nc1ccc(Oc2ccnc3cc(OC)c(OC)cc23)c(F)c1 [LDC1267]
  NK cell activation: activates NK cells
